Two compounds from patent US9090582B2, “Highly pure pentamycin” (Biolotus Biotechnology AG, priority 2008, dated 2015) can be followed below.

The data set is classed as physicochemical. How it is done:
The stability of more than 95% pure polymorph A on exposure to air and heat is compared to the stability of amorphous pentamycin (containing more than 95% pure pentamycin) as follows:
Amorphous pentamycin is prepared by precipitation from a solution of more than 95% pure pentamycin in dimethylsulfoxide by adding acetonitrile, followed by filtering and drying the precipitate.
More than 95% pure polymorph A of pentamycin is prepared by crystallization from a solution of more than 95% pure pentamycin in dimethylsulfoxide by adding ethyl acetate, followed by filtering and drying the precipitate.
A sample of the thus obtained amorphous pentamycin and a sample of the thus obtained polymorph A are incubated in an open vessel about six days at 60° C. and additionally 2 weeks at 40° C. The process of degradation is monitored by HPLC, measuring the decrease of the purity relative to the inital state at zero time (t0) set on 100%. After the incubation the amount of degradation of amorphous pentamycin is 11% whereas the amount of degradation of polymorph A is only 1%.

Take `CCCCC[C@@H](O)[C@H]1C(=O)O[C@H](C)[C@@H](O)/C=C/C=C/C=C/C=C/C=C(\C)[C@@H](O)[C@H](O)[C@H](O)C[C@H](O)C[C@H](O)C[C@H](O)C[C@H](O)C[C@@H]1O` [polymorph A, pentamycin]: the “amount of degradation (decrease of the purity relative to the initial state at zero time t0 set on 100%)” value is 1%. In the case of `CCCCC[C@@H](O)[C@H]1C(=O)O[C@H](C)[C@@H](O)/C=C/C=C/C=C/C=C/C=C(\C)[C@@H](O)[C@H](O)[C@H](O)C[C@H](O)C[C@H](O)C[C@H](O)C[C@H](O)C[C@@H]1O` [amorphous pentamycin, pentamycin], the “amount of degradation (decrease of the purity relative to the initial state at zero time t0 set on 100%)” value came to 11%.
